Results taken from patent publication US20120208776A1 (priority 2002, published 2012).
In brackets after ≈: the same amount, converted by molar mass. Several values for one entry are separate records, joined by “and”; a condition that tells them apart may be missing. Equal entries are not always repeated. Where two headings read alike, the source gives them in different places.

Columns and labels:
BT474 cells = experiment: Cell proliferation, cell count (Coulter Counter); type: cell-based; conditions: Homo sapiens
[1] = test system: rat liver gene expression; experiment: AffyLimma microarray analysis of rat liver, actein; type: in vivo, Sprague-Dawley rats; conditions: for number of genes significantly altered (B>0): actein; for Fold-change relative to control, BZRP, Microarray / Fold-change relative to control, CCND1, Microarray / Fold-change relative to control, CYP7A1, Microarray / Fold-change relative to control, HMGCR, Microarray / Fold-change relative to control, HMGCS1, Microarray / Fold-change relative to control, HSD17B7, Microarray / Fold-change relative to control, ID3, Microarray / Fold-change relative to control, NQO1, Microarray / Fold-change relative to control, S100A9, Microarray: rat liver, 35.7 mg/kg
NF-κB promoter = experiment: NF-κB reporter assay (luciferase); type: cell-based, human; conditions: MDA-MB-453, 24 h
Protocol: (§1) The cyclin D1 promoter luciferase reporter plasmid, 1745CD1LUC, was prepared by Dr. R. Pestell (Albert Einstein Cancer Center, New York, N.Y.). The method used for transient transfection reporter assays was previously described (Soh et al., Novel roles of specific isoforms of protein kinase C in activation of the c-fos serum response element. Molecular and Cellular Biology, 19:1313-24, 1999). Using lipofectin, triplicate samples of MDA-MB-453 breast cancer cells (1×10^5 cells in 35-mm plates) were co-transfected using DNA of the indicated reporter plasmid (1 μg) and the β-gal plasmid as an internal control (10 μg of the pCMV-b-gal plasmid) in opti-MEM 1 medium (Life Technologies, Inc.). After 24 h, the medium was replaced with serum-free medium containing the indicated concentrations of actein. After 24 h, cells were harvested, and luciferase activity was determined with the luciferase assay system (Promega Corp. Madison, Wis.); β-gal activities were determined with the β-gal enzyme assay system (Promega). Luciferase activities were normalized to β-gal activities, to correct for differences in transfection efficiency.
NF-κB reporter assay. The NE-κB promoter luciferase reporter plasmid was from Dr. Jae Won Soh. The method for transient transfection reporter assays was as previously described.

ERK2 in MDA-MB-453 cells = experiment: RNAi-mediated gene knockdown of ERK2 (MAPK1), growth inhibition; type: cell-based, human; conditions: for inhibition at 20 µg/mL: Homo sapiens, MDA-MB-453, 48 h, actein 20 μg/ml, 48 h, read-out: percent growth inhibition; for cell proliferation: digitoxin 0.4 μg/ml, 24 hours
Protocol: RNAi-mediated gene knockdown. To test the functional relevance of ERK2 (p42/44MAPK pathway), the growth inhibitory effects of actein on MDA-MB-453 cells using the model system RNAi-mediated gene knockdown was examined. Cells were pretreated with siRNA to ERK2 (Hs/Mm MAPK1 siRNA) (Qiagen, Valencia, Calif.) for 24 h, then treated with actein at 20 μg/ml for 48 h, and the percent surviving cells was assayed. Western blot analysis was performed to confirm the ERK2 knockdown.

cyclin D1 promoter = experiment: Cyclin D1 reporter assay (luciferase); type: cell-based, human; conditions: MDA-MB-453, 24 h
Protocol: as §1

[2] = test system: HepG2 p53 positive human liver cancer cells; experiment: MTT proliferation assay; type: cell-based
rat liver mRNAs = type: in vivo, Sprague-Dawley rats; conditions: 35.7 mg/kg
Description: Total RNA was isolated using Trizol (Invitrogen, CA), and purified with the RNeasy Kit (Qiagen, CA). mRNA sequences were obtained from the public GeneBank database (www.ncbi.nlm.nih.gov), and primers were designed using Primer3 software from The Massachusetts Institute of Technology (frodo.wi.mit.edu/cgi-bin/primer3/primer3_www.cgi).

[3] = Animal wellness, histopathological examination, tolerated dose; type: in vivo, Sprague-Dawley rats; conditions: actein 35.7 mg/kg; 24 hours
Protocol: A sample of each mammary tumor was collected, frozen in liquid nitrogen and kept at −70° C.
Analysis by microscopy: Histopathological examination of H&E and H&E/Oil Red O stained sections of control and treated tissues obtained 6 or 24 hours after treatment were performed. Tissues were embedded in OCT (optimal cutting temperature compound to enable cryosectioning of the sample).
Livers were embedded in OCT (optimal cutting temperature compound to enable cryosectioning of the sample) and stained with haematoxylin and eosin (H and E). All samples were visualized with a Zeiss Axioplan 2 microscope (Carl Zeiss Inc., Thornwood, N.Y.) and images were obtained with a Nikon Coolpix 5000 (Nikon Instruments, Melville, N.Y.) camera.

MCF7 cells = experiment: Cell proliferation, cell count (Coulter Counter); type: cell-based, human; conditions: for IC50: Homo sapiens, MCF7 cells, read-out: IC50
[4] = test system: MCF10F normal mammary epithelial cells; experiment: Cell proliferation, cell count (Coulter Counter); type: cell-based, human; conditions: 96 h
[5] = heart failure; cited from earlier work

In the case of CC(=O)O[C@@H]1C[C@@]23C[C@@]24CC[C@H](O[C@@H]2OC[C@@H](O)[C@H](O)[C@H]2O)C(C)(C)[C@@H]4CC[C@H]3[C@]2(C)C[C@@H]3O[C@]4(C[C@@H](C)[C@@H]3[C@@]12C)O[C@H](O)[C@@]1(C)O[C@@H]41 [actein], the IC50 (BT474 cells; BT-474, BT474, unit inferred, read-out: IC50) is reported as 23.6 µM, the “number of genes significantly altered (B>0)” value ([1]; 6 hours) is reported as 0 and the “number of genes significantly altered (B>0)” value ([1]; 24 hours) is reported as 109. The “Fold-change relative to control, BZRP, Microarray” value ([1]; 6 h) was −0.12, the “Fold-change relative to control, CCND1, Microarray” value ([1]; 6 h) was 0.57 and the “Fold-change relative to control, CYP7A1, Microarray” value ([1]; 6 h) was 0.045. The “Fold-change relative to control, HMGCR, Microarray” value ([1]; 6 h) was −0.61, the “Fold-change relative to control, HMGCS1, Microarray” value ([1]; 6 h) was −0.66 and the “Fold-change relative to control, HSD17B7, Microarray” value ([1]; 6 h) was −0.99. For the same compound, the “Fold-change relative to control, ID3, Microarray” value ([1]; 6 h) was 0.19, the “Fold-change relative to control, NQO1, Microarray” value ([1]; 6 h) was −0.64 and the “Fold-change relative to control, S100A9, Microarray” value ([1]; 6 h) was −0.64. The “Fold-change relative to control, BZRP, Microarray” value ([1]; 24 h) was 1.51, the “Fold-change relative to control, CCND1, Microarray” value ([1]; 24 h) was −2.30 and the “Fold-change relative to control, CYP7A1, Microarray” value ([1]; 24 h) was 2.04. For the same compound, the “Fold-change relative to control, HMGCR, Microarray” value ([1]; 24 h) was 1.12, the “Fold-change relative to control, HMGCS1, Microarray” value ([1]; 24 h) was 1.11 and the “Fold-change relative to control, HSD17B7, Microarray” value ([1]; 24 h) was 2.11. For the same compound, the “Fold-change relative to control, ID3, Microarray” value ([1]; 24 h) was −0.58, the “Fold-change relative to control, NQO1, Microarray” value ([1]; 24 h) was 1.45 and the “Fold-change relative to control, S100A9, Microarray” value ([1]; 24 h) was 3.01. For the same compound, the NF-kB promoter activity (NF-κB promoter; 20 μg/ml) was 1.59 fold, the NF-kB promoter activity (NF-κB promoter; 40 μg/ml) was 0.12 fold and the inhibition at 20 µg/mL (ERK2 in MDA-MB-453 cells; ERK2 siRNA) was 79.6%. For the same compound, the inhibition at 20 µg/mL (ERK2 in MDA-MB-453 cells; control siRNA) was 100%, the “cyclin D1 promoter activity” value (cyclin D1 promoter; 20 μg/ml) was 0.87 fold and the “cyclin D1 promoter activity” value (cyclin D1 promoter; 40 μg/ml) was 0.093 fold. For the same compound, the IC50 [2] was 27 µg/mL and 40 µM, the “Fold-change relative to control, BZRP, RT-PCR” value (rat liver mRNAs; 6 h) was 0.07 and the “Fold-change relative to control, CCND1, RT-PCR” value (rat liver mRNAs; 6 h) was 0.52. The “Fold-change relative to control, HMGCR, RT-PCR” value (rat liver mRNAs; 6 h) was −0.45, the “Fold-change relative to control, HMGCS1, RT-PCR” value (rat liver mRNAs; 6 h) was −0.82 and the “Fold-change relative to control, HSD17B7, RT-PCR” value (rat liver mRNAs; 6 h) was −0.66. For the same compound, the “Fold-change relative to control, ID3, RT-PCR” value (rat liver mRNAs; 6 h) was 0.30, the “Fold-change relative to control, NQO1, RT-PCR” value (rat liver mRNAs; 6 h) was −0.50 and the “Fold-change relative to control, S100A9, RT-PCR” value (rat liver mRNAs; 6 h) was −0.36. The “Fold-change relative to control, BZRP, RT-PCR” value (rat liver mRNAs; 24 h) was 1.13, the “Fold-change relative to control, CCND1, RT-PCR” value (rat liver mRNAs; 24 h) was −2.32 and the “Fold-change relative to control, HMGCR, RT-PCR” value (rat liver mRNAs; 24 h) was 0.45. The “Fold-change relative to control, HMGCS1, RT-PCR” value (rat liver mRNAs; 24 h) was 1.44, the “Fold-change relative to control, HSD17B7, RT-PCR” value (rat liver mRNAs; 24 h) was 1.21 and the “Fold-change relative to control, ID3, RT-PCR” value (rat liver mRNAs; 24 h) was −1.52. For the same compound, the “Fold-change relative to control, NQO1, RT-PCR” value (rat liver mRNAs; 24 h) was 1.73, the “Fold-change relative to control, S100A9, RT-PCR” value (rat liver mRNAs; 24 h) was 2.92 and the “liver histology (H&E)” value [3] was “hepatotoxicity”. The IC50 (MCF7 cells; 96 h) was 14 µg/mL, the IC50 (MCF7 cells; 96 h, value in parentheses) was 21 µM and the cells alive (MCF7 cells; MCF7, 20 μg/ml, 96 h) was 38.0%±3.0. The “potency relative to 23-epi-26-deoxyactein or cimifugoside” value (MCF7 cells; MCF7 growth inhibition) was “approximately 1.5 fold”, the “potency relative to cimiracemoside A” value (MCF7 cells; MCF7 growth inhibition) was “approximately 3 times” and the IC50 ([4]; Homo sapiens, MCF-10F, MCF10F cells) was 42 µg/mL (≈ 62.1 µM). The cells alive ([4]; MCF10F, 20 μg/ml) was 63.8%±1.4.

In the case of C[C@H]1O[C@@H](O[C@H]2[C@@H](O)C[C@H](O[C@H]3[C@@H](O)C[C@H](O[C@H]4CC[C@@]5(C)[C@H](CC[C@@H]6[C@@H]5CC[C@]5(C)[C@@H](C7=CC(=O)OC7)CC[C@]65O)C4)O[C@@H]3C)O[C@@H]2C)C[C@H](O)[C@@H]1O [digitoxin], the IC50 (BT474 cells; BT-474, BT474, Coulter counter) is listed as 0.03 µg/mL and 40 nM, the IC50 (BT474 cells; BT-474, BT474, unit inferred) is listed as 0.039 µM and the therapeutic plasma concentration [5] is listed as “greater than 10 ng/ml and > 13 nM”. It also gave a cell proliferation (ERK2 in MDA-MB-453 cells; control siRNA) of 96.0% and a cell proliferation (ERK2 in MDA-MB-453 cells; siRNA to MAPK1) of 76.9%.
